According to US20230113037A1 (Bayer Aktiengesellschaft, priority 2019, published 2023):
Where two headings read alike, the source gives them in different places.

How the values were obtained:
AHR [1] = target: T1, AHR (Homo sapiens, UniProt P35869); test: In vitro assay 1: antagonism in human cell line (AHR transactivation, firefly luciferase reporter, kynurenic acid prestimulated); format: cell-based; settings: AHR Antagonism Human IC50 [M]
T1 construct: U87 MG glioblastoma cells (ATCC #HTB-14) endogenously expressing AHR; endogenous in cells; host or cells: U87 MG glioblastoma cells (ATCC #HTB-14)
T1 sequence (P35869 11-848): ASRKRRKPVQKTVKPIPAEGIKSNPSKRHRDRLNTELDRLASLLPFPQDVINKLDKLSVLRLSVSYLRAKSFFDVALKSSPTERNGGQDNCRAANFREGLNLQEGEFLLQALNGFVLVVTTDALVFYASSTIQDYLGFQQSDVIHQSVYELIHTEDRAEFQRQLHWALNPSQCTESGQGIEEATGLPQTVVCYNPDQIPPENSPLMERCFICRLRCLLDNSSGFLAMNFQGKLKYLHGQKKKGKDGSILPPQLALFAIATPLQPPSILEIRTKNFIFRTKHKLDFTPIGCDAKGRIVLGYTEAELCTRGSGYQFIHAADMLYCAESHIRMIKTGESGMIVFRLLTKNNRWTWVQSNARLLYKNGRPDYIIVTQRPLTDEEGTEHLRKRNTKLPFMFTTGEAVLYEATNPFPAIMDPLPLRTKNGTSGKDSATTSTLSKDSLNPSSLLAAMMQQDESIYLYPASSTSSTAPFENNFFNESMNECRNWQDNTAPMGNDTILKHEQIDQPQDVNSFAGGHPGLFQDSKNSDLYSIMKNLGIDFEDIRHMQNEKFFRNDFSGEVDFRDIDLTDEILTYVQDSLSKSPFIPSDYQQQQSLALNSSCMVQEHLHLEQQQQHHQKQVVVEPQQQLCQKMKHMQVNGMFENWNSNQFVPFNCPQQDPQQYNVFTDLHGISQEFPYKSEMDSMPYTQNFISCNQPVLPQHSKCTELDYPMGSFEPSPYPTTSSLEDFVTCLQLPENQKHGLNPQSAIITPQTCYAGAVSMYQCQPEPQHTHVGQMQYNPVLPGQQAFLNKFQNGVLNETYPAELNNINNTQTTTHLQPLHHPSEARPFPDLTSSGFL
Outline: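 Antagonism measured as loss of kynurenic acid-driven firefly luciferase from DRE reporter in stably transfected U87 MG cells; constitutive Renilla signal monitors cytotoxicity. Positive/negative control normalization, staurosporine 5 μM with 150 μM kynurenic acid as inhibition control; replicates given as mean or median.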

AHR [2] = target: T2, AHR (Mus musculus, UniProt P30561); test: In vitro assay 3: antagonism in mouse cell line (AHR transactivation, firefly luciferase reporter, kynurenic acid prestimulated); format: cell-based
T2 sequence (P30561 1-848 P471L/N533S/M589L): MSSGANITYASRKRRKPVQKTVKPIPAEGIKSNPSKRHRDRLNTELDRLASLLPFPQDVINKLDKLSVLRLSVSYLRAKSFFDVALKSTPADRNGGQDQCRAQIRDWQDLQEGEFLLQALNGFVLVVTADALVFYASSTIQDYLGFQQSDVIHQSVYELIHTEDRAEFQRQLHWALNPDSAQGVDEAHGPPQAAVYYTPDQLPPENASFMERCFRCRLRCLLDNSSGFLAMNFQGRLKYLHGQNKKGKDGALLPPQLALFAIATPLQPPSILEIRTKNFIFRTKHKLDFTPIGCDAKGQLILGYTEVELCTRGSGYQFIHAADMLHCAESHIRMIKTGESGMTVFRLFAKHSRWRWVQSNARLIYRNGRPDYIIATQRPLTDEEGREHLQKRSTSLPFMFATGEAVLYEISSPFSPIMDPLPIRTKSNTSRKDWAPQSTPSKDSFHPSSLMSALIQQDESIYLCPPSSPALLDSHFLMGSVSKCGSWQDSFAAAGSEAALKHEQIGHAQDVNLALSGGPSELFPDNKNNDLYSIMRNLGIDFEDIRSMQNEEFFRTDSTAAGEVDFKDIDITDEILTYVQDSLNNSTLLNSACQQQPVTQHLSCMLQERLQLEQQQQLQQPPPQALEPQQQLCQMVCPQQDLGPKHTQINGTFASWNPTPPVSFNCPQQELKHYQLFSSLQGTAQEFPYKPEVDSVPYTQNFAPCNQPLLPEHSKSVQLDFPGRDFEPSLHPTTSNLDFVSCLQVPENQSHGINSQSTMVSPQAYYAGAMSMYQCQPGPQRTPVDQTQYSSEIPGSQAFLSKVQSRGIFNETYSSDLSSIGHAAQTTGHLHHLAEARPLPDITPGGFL
Outline: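 Kynurenic acid-prestimulated mouse reporter cells; stable AHR-inducible firefly luc construct with DRE sites in promoter. No-agonist wells = positive inhibition ctrl. Luminescence normalized to pos/neg ctrls; n>1 reported as mean or median.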

[3] = read-out: AHR Antagonism Mouse IC50, mouse Hepa 1c1c7 cells, 200 μM kynurenic acid, 20 hours
[4] = mouse Hepa 1c1c7 cells, 200 μM kynurenic acid, 20 hours, read-out: AHR Antagonism Mouse IC50
[5] = Hepa 1c1c7 cells, 200 μM kynurenic acid, 20 hours, firefly luciferase reporter, read-out: AHR Antagonism Mouse IC50

Row | SMILES | IC50 (AHR [1]) [M] | IC50 (AHR [2]; [3]) [nM] | IC50 (AHR [2]; [4]) [nM] | IC50 (AHR [1]; firefly luciferase reporter) [M] | IC50 (AHR [2]; [5]) [nM]
1 | Cn1cc(-c2nc3c4c(Cl)cccc4nc(N[C@@H]4CCCCNC4=O)n3n2)cn1 [Example 169, (3R)-3-{[10-chloro-2-(1-methyl-1H-pyrazol-4-yl)[1,2,4]triazolo[1,5-c]quinazolin-5-yl]amino}azepan-2-one] | 7.27e-09 | 118 |  |  | 
2 | CC[C@@H](Nc1nc2ccccc2c2nc(-c3cccc(S(C)(=O)=O)c3)nn12)C(N)=O [Example 378, (2R)-2-({2-[3-(methanesulfonyl)phenyl][1,2,4]triazolo[1,5-c]quinazolin-5-yl}amino)butanamide] | 6.25e-07 |  | 171 |  | 
3 | Cc1cccc(C)c1-c1nc2c3ccccc3nc(N[C@@H]3CCCCNC3=O)n2n1 [Example 623, (3R)-3-{[2-(2,6-dimethylphenyl)[1,2,4]triazolo[1,5-c]quinazolin-5-yl]amino}azepan-2-one] | 3.37e-07 |  | 4.65 |  | 
4 | COc1ccc(-c2nc3c4ccccc4nc(N[C@H](C)C(=O)NCCN4CCN(C(=O)OC(C)(C)C)CC4)n3n2)cc1 [Example 884, tert-butyl 4-[2-({N-[2-(4-methoxyphenyl)[1,2,4]triazolo[1,5-c]quinazolin-5-yl]-D-alanyl}amino)ethyl]piperazine-1-carboxylate] |  |  |  | 6.66e-09 | 8.31
5 | COc1ccc(-c2nc3c4cccc(Br)c4nc(N[C@H](C)C(=O)N4C[C@H]5C[C@@H]4CO5)n3n2)cc1 [Example 899, (2R)-2-{[7-bromo-2-(4-methoxyphenyl)[1,2,4]triazolo[1,5-c]quinazolin-5-yl]amino}-1-[(1R,4R)-2-oxa-5-azabicyclo[2.2.1]heptan-5-yl]propan-1-one] |  |  |  | 1.12e-09 | 0.885
6 | COc1ccc(-c2nc3c4ccccc4nc(N[C@H](C)C(=O)NCCN4CCCCC4)n3n2)cc1 [Example 897, N^2-[2-(4-methoxyphenyl)[1,2,4]triazolo[1,5-c]quinazolin-5-yl]-N-[2-(piperidin-1-yl)ethyl]-D-alaninamide] |  |  |  | 4.02e-08 | 28.5
7 | Cn1cc(-c2nc3c4cccc(Br)c4nc(N[C@@H]4CCCNC4=O)n3n2)cn1 [Example 221, (3R)-3-{[7-bromo-2-(1-methyl-1H-pyrazol-4-yl)[1,2,4]triazolo[1,5-c]quinazolin-5-yl]amino}piperidin-2-one] | 3.46e-07 |  | 653 |  | 
8 | Cn1cc(-c2nc3c4cccc(Br)c4nc(N[C@H]4CSCCNC4=O)n3n2)cn1 [Example 841, (6R)-6-{[7-bromo-2-(1-methyl-1H-pyrazol-4-yl)[1,2,4]triazolo[1,5-c]quinazolin-5-yl]amino}-1,4-thiazepan-5-one] |  |  |  | 1.82e-09 | 3.01
9 | N#Cc1cccc2nc(N[C@@H]3CCCCNC3=O)n3nc(-c4cccc(F)c4)nc3c12 [Example 249, 2-(3-fluorophenyl)-5-{[(3R)-2-oxoazepan-3-yl]amino}[1,2,4]triazolo[1,5-c]quinazoline-10-carbonitrile] | 2.96e-08 |  | 3.63 |  | 
10 | Cc1cscc1-c1nc2c3ccccc3nc(N[C@@H]3CCNC3=O)n2n1 [Example 541] | 3.5e-08 |  | 631 |  | 
11 | Nc1cccc(-c2nc3c4ccccc4nc(N[C@@H]4CNCCNC4=O)n3n2)c1 [Example 413, (6R)-6-{[2-(3-aminophenyl)[1,2,4]triazolo[1,5-c]quinazolin-5-yl]amino}-1,4-diazepan-5-one] | 8.94e-08 |  | 62.1 |  | 
12 | CS(=N)(=O)c1ccc(-c2nc3c4ccccc4nc(N[C@@H]4CCCCNC4=O)n3n2)cc1 (single isomer, unassigned) [Example 307] | 1.35e-07 |  | 84.7 |  | 
13 | O=C1NCCCC[C@H]1Nc1nc2c(C(F)(F)F)cccc2c2nc(-c3cnn(CC4CC4)c3)nn12 [Example 742, (3R)-3-({2-[1-(cyclopropylmethyl)-1H-pyrazol-4-yl]-7-(trifluoromethyl)[1,2,4]triazolo[1,5-c]quinazolin-5-yl}amino)azepan-2-one] | 8.31e-10 |  | 1.9 |  | 
14 | CCC[C@@H](Nc1nc2ccccc2c2nc(-c3cc(C(F)(F)F)ccn3)nn12)C(=O)NC [Example 368, N-methyl-N^2-{2-[4-(trifluoromethyl)pyridin-2-yl][1,2,4]triazolo[1,5-c]quinazolin-5-yl}-D-norvalinamide] | 5e-08 |  | 24.8 |  | 
15 | O=C1NCCCC[C@H]1Nc1nc2ccccc2c2nc(-c3ccc(Br)cc3Cl)nn12 [Example 200, (3R)-3-{[2-(4-bromo-2-chlorophenyl)[1,2,4]triazolo[1,5-c]quinazolin-5-yl]amino}azepan-2-one] | 2.87e-09 |  | > 20000 |  | 
16 | CC[C@@H](Nc1nc2ccccc2c2nc(-c3ccncc3F)nn12)C(N)=O [Example 484, (2R)-2-{[2-(3-fluoropyridin-4-yl)[1,2,4]triazolo[1,5-c]quinazolin-5-yl]amino}butanamide] | 9.06e-08 |  | 27.6 |  | 
17 | O=C1NCCCC[C@H]1Nc1nc2c(Cl)cccc2c2nc(-c3ccncc3)nn12 [Example 193, (3R)-3-{[7-Chloro-2-(pyridin-4-yl)[1,2,4]triazolo[1,5-c]quinazolin-5-yl]amino}azepan-2-one] | 2.05e-08 |  | 87.2 |  | 
18 | O=C1NCC[C@H]1Nc1nc2ccccc2c2nc(-c3ccccc3OC(F)F)nn12 [Example 473, (3R)-3-({2-[2-(difluoromethoxy)phenyl][1,2,4]triazolo[1,5-c]quinazolin-5-yl}amino)pyrrolidine-2-one] | 5.1e-08 |  | 17.9 |  | 
19 | COc1cccc(-c2nc3c4ccccc4nc(N[C@H](CO)C(=O)O)n3n2)c1 [Example 91, N-[2-(3-methoxyphenyl)[1,2,4]triazolo[1,5-c]quinazolin-5-yl]-D-serine] | > 2e-05 |  | > 20000 |  | 
20 | COc1cccc(-c2nc3c4ccccc4nc(N[C@H](C(N)=O)C(C)C)n3n2)c1 [Example 83, N^2-[2-(3-methoxyphenyl)[1,2,4]triazolo[1,5-c]quinazolin-5-yl]-L-valinamide] | 6.99e-07 |  | 115 |  | 
21 | COc1cccc(-c2nc3c4c(C)cccc4nc(NC4CCNC4=O)n3n2)c1 (stereo not shown) [Example 179, 3-{[2-(3-methoxyphenyl)-10-methyl[1,2,4]triazolo[1,5-c]quinazolin-5-yl]amino}pyrrolidin-2-one] | 1.01e-07 | 246 |  |  | 
22 | COc1ccc(-c2nc3c4cccc(Br)c4nc(N[C@H](C)C(=O)N4C[C@@H]5C[C@H]4CN5C)n3n2)cc1 [Example 901, (2R)-2-{[7-bromo-2-(4-methoxyphenyl)[1,2,4]triazolo[1,5-c]quinazolin-5-yl]amino}-1-[(1S,4S)-5-methyl-2,5-diazabicyclo[2.2.1]heptan-2-yl]propan-1-one] |  |  |  | 2.88e-09 | 4.79
23 | COc1ccc(-c2nc3c4cccc(Br)c4nc(N[C@@H]4COCCNC4=O)n3n2)cc1 [Example 699, (6R)-6-{[7-bromo-2-(4-methoxyphenyl)[1,2,4]triazolo[1,5-c]quinazolin-5-yl]amino}-1,4-oxazepan-5-one] | 9.83e-10 |  | 1.47 |  | 
